The test has as its system BDF1 mice, P388 leukemia ip, median survival T/C. Nature of the test: NCI In Vivo Anticancer Drug Screen. Data for tumor model P388 Leukemia (intraperitoneal) in B6D2F1 (BDF1) mice. Particulars: endpoint: median survival time, higher = longer survival. Summed up: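 In tumour-bearing mice, survival after compound treatment is set against the vehicle group and given as a quotient.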

[1] abbreviates: dose: 50.0 mg/kg/injection, schedule: Q01DX009 (ip), vehicle: Klucel (hydroxypropylcellulose) (HPC).
[2] abbreviates: dose: 100.0 mg/kg/injection, schedule: Q01DX009 (ip), vehicle: Klucel (hydroxypropylcellulose) (HPC).
Where [3] appears, read: dose: 100.0 mg/kg/injection, schedule: Q04DX003 (ip), vehicle: Klucel (hydroxypropylcellulose) (HPC).
[4] abbreviates: dose: 12.5 mg/kg/injection, schedule: Q01DX009 (ip), vehicle: saline.
The mark [5] stands for this setting: dose: 25.0 mg/kg/injection, schedule: Q01DX009 (ip), vehicle: saline.
Where [6] appears, read: dose: 50.0 mg/kg/injection, schedule: Q01DX009 (ip), vehicle: saline.
[7] abbreviates: dose: 100.0 mg/kg/injection, schedule: Q01DX009 (ip), vehicle: saline.
Setting [8] is: dose: 200.0 mg/kg/injection, schedule: Q01DX009 (ip), vehicle: saline.
The mark [9] stands for this setting: dose: 100.0 mg/kg/injection, schedule: Q04DX003 (ip), vehicle: saline.
Where [10] appears, read: dose: 200.0 mg/kg/injection, schedule: Q04DX003 (ip), vehicle: saline.
[11] abbreviates: dose: 400.0 mg/kg/injection, schedule: Q04DX003 (ip), vehicle: saline.
[12] abbreviates: dose: 25.0 mg/kg/injection, schedule: Q04DX003 (ip), vehicle: saline.
Setting [13] is: dose: 50.0 mg/kg/injection, schedule: Q04DX003 (ip), vehicle: saline.
The mark [14] stands for this setting: dose: 25.0 mg/kg/injection, schedule: Q01DX009 (ip), vehicle: saline with Tween-80.
Where [15] appears, read: dose: 50.0 mg/kg/injection, schedule: Q01DX009 (ip), vehicle: saline with Tween-80.
Setting [16] is: dose: 100.0 mg/kg/injection, schedule: Q01DX009 (ip), vehicle: saline with Tween-80.
[17] abbreviates: dose: 200.0 mg/kg/injection, schedule: Q01DX009 (ip), vehicle: Klucel (hydroxypropylcellulose) (HPC).

“And” between values parts separate entries of the source, which are not always exact repeats. Identical values can stand only once. Inconclusive results and toxic doses are left out.

As to `Nc1cc(N)nc(S(=O)O)n1`, the T/C (dose: 25.0 mg/kg/injection, schedule: Q01DX009 (ip), vehicle: Klucel (hydroxypropylcellulose) (HPC)) is 95 % of control and 111 % of control and 120 % of control; the T/C (dose: 25.0 mg/kg/injection, schedule: Q04DX003 (ip), vehicle: Klucel (hydroxypropylcellulose) (HPC)) was 104 % of control; the T/C under setting [1] was 95 % of control; the T/C (dose: 50.0 mg/kg/injection, schedule: Q04DX003 (ip), vehicle: Klucel (hydroxypropylcellulose) (HPC)) is 95 % of control; the T/C under setting [2] was 90 % of control and 110 % of control; the T/C under setting [3] was 100 % of control.
For `COc1ccc(C(C)c2ccccc2)cc1C(C)c1ccccc1` (stereo not drawn), the T/C by setting is: (dose: 100.0 mg/kg/injection, schedule: Q04DX003 (ip), vehicle: saline with Tween-80) 109 % of control; (dose: 200.0 mg/kg/injection, schedule: Q04DX003 (ip), vehicle: saline with Tween-80) 90 % of control; (dose: 400.0 mg/kg/injection, schedule: Q04DX003 (ip), vehicle: saline with Tween-80) 100 % of control.
Turning to `C=C(C)C12OC3(c4ccccc4)OC1C1C4OC4(CO)C(O)C4(O)C(=O)C(C)=CC4C1(O3)C(C)C2OC(=O)/C=C/C=C/c1ccccc1` (stereo not drawn), the T/C by setting is: (dose: 0.01 mg/kg/injection, schedule: Q01DX009 (ip), vehicle: saline + alcohol) 115 % of control; (dose: 0.02 mg/kg/injection, schedule: Q01DX009 (ip), vehicle: saline + alcohol) 94 % of control; (dose: 0.03 mg/kg/injection, schedule: Q01DX009 (ip), vehicle: saline + alcohol) 123 % of control; (dose: 0.5 mg/kg/injection, schedule: Q01DX009 (ip), vehicle: saline + alcohol) 156 % of control; (dose: 3.1 micrograms/kg/injection, schedule: Q01DX009 (ip), vehicle: saline + alcohol) 123 % of control; (dose: 6.0 micrograms/kg/injection, schedule: Q01DX009 (ip), vehicle: saline + alcohol) 101 % of control. Further, the T/C (dose: 6.3 micrograms/kg/injection, schedule: Q01DX009 (ip), vehicle: saline + alcohol) is 104 % of control; the T/C (dose: 12.5 micrograms/kg/injection, schedule: Q01DX009 (ip), vehicle: saline + alcohol) was 123 % of control; the T/C (dose: 25.0 micrograms/kg/injection, schedule: Q01DX009 (ip), vehicle: gum acacia) is 121 % of control; the T/C (dose: 25.0 micrograms/kg/injection, schedule: Q01DX009 (ip), vehicle: saline + alcohol) is 124 % of control; the T/C (dose: 25.0 micrograms/kg/injection, schedule: Q01DX009 (ip), vehicle: saline with Tween-80) is 200 % of control; the T/C (dose: 50.0 micrograms/kg/injection, schedule: Q01DX009 (ip), vehicle: gum acacia) is 90 % of control. Further, the T/C by setting is: (dose: 50.0 micrograms/kg/injection, schedule: Q01DX009 (ip), vehicle: saline + alcohol) 155 % of control; (dose: 50.0 micrograms/kg/injection, schedule: Q01DX009 (ip), vehicle: saline with Tween-80) 92 % of control; (dose: 100.0 micrograms/kg/injection, schedule: Q01DX009 (ip), vehicle: saline with Tween-80) 88 % of control.
As to `O=C1NC(=O)C(c2ccccc2)(c2ccccc2)N1CCS`, the T/C by setting is: under setting [4], 96 % of control and 104 % of control; under setting [5], 99 % of control and 104 % of control; under setting [6], 93 % of control; under setting [7], 89 % of control and 99 % of control; under setting [8], 112 % of control and 113 % of control.
For the compound `O=C(O)C(CS(=O)(=O)O)Nc1ncnc2nc[nH]c12` (stereo not drawn), the T/C by setting is: under setting [9], 100 % of control; under setting [10], 100 % of control; under setting [11], 100 % of control.
In the case of `Cc1nn(C)c(N)c1C#N`, the T/C reads like this: under setting [4], 87 % of control; under setting [5], 94 % of control; under setting [12], 103 % of control; under setting [6], 87 % of control; under setting [13], 97 % of control; under setting [7], 101 % of control. The T/C under setting [9] is 92 % of control; the T/C under setting [8] was 100 % of control; the T/C under setting [10] is 97 % of control; the T/C (dose: 400.0 mg/kg/injection, schedule: Q01DX009 (ip), vehicle: saline) is 92 % of control; the T/C under setting [11] was 97 % of control.
Take `Cc1ccc(CC(N)c2nn[nH]n2)cc1` (stereo not drawn): the T/C under setting [14] was 97 % of control, the T/C under setting [15] is 105 % of control and the T/C under setting [16] was 100 % of control.
With `C1=NCCCN1`, the T/C under setting [12] was 100 % of control, the T/C under setting [13] is 100 % of control and the T/C under setting [9] was 100 % of control.
As to `CCC(=O)O[C@H]1CC[C@H]2[C@@H]3CC(=C(Br)Br)C4=CC(=O)CC[C@]4(C)[C@H]3CC[C@]12C`, the T/C runs as follows: (dose: 12.5 mg/kg/injection, schedule: Q01DX009 (ip), vehicle: saline with Tween-80) 91 % of control; under setting [14], 100 % of control; under setting [15], 86 % of control and 90 % of control.
Take `CCCC1CC[N-]CC1.CCCC1CC[N-]CC1.CCCC1CC[N-]CC1.CCCC1CC[N-]CC1.[Cl][Ni][Cl]`: the T/C (dose: 2.0 mg/kg/injection, schedule: Q01DX009 (ip), vehicle: saline) was 116 % of control; the T/C (dose: 4.0 mg/kg/injection, schedule: Q01DX009 (ip), vehicle: saline) is 97 % of control; the T/C (dose: 6.25 mg/kg/injection, schedule: Q01DX009 (ip), vehicle: saline) was 112 % of control; the T/C (dose: 8.0 mg/kg/injection, schedule: Q01DX009 (ip), vehicle: saline) is 116 % of control; the T/C under setting [13] was 100 % of control.
For the compound `CCOC(=O)c1c[nH]n2c(=S)ncnc12`, the T/C is, setting by setting: under setting [16], 100 % of control and 109 % of control; (dose: 200.0 mg/kg/injection, schedule: Q01DX009 (ip), vehicle: saline with Tween-80) 110 % of control; (dose: 400.0 mg/kg/injection, schedule: Q01DX009 (ip), vehicle: saline with Tween-80) 104 % of control.
Regarding `CC(=O)/C=C\c1ccc(Cl)cc1`, the T/C reads like this: under setting [1], 100 % of control; under setting [2], 111 % of control; under setting [17], 109 % of control; (dose: 400.0 mg/kg/injection, schedule: Q01DX009 (ip), vehicle: Klucel (hydroxypropylcellulose) (HPC)) 111 % of control.
Take `C=C1C(=O)OC2/C=C(/C)C(OC(C)=O)CC(O)/C(C)=C\C(OC(=O)/C(C)=C\C)C12` (stereo not drawn): the T/C (dose: 2.5 mg/kg/injection, schedule: Q01DX009 (ip), vehicle: saline + alcohol) was 100 % of control; the T/C (dose: 5.0 mg/kg/injection, schedule: Q01DX009 (ip), vehicle: saline + alcohol) is 118 % of control; the T/C (dose: 10.0 mg/kg/injection, schedule: Q01DX009 (ip), vehicle: saline + alcohol) is 109 % of control; the T/C (dose: 20.0 mg/kg/injection, schedule: Q01DX009 (ip), vehicle: saline + alcohol) is 109 % of control; the T/C (dose: 27.0 mg/kg/injection, schedule: Q01DX010 (ip), vehicle: saline) was 115 % of control; the T/C (dose: 40.0 mg/kg/injection, schedule: Q01DX009 (ip), vehicle: saline + alcohol) is 122 % of control. Besides, the T/C is 110 % of control (dose: 40.0 mg/kg/injection, schedule: Q01DX010 (ip), vehicle: saline) and 86 % of control (dose: 80.0 mg/kg/injection, schedule: Q01DX009 (ip), vehicle: saline + alcohol).
Regarding `COc1cccc(CNc2ccc(C)c(Cl)c2)c1OC`, the T/C is 92 % of control (dose: 12.5 mg/kg/injection, schedule: Q01DX009 (ip), vehicle: gum acacia); 107 % of control (dose: 25.0 mg/kg/injection, schedule: Q01DX009 (ip), vehicle: gum acacia); 103 % of control (dose: 50.0 mg/kg/injection, schedule: Q01DX009 (ip), vehicle: gum acacia); 91 % of control (dose: 100.0 mg/kg/injection, schedule: Q04DX003 (ip), vehicle: gum acacia); 95 % of control (dose: 200.0 mg/kg/injection, schedule: Q04DX003 (ip), vehicle: gum acacia); 95 % of control (dose: 400.0 mg/kg/injection, schedule: Q04DX003 (ip), vehicle: gum acacia).
In the case of `COC(CC(C)CCCC(C)(C)O)OC` (stereo not drawn), the T/C under setting [1] was 110 % of control; the T/C under setting [2] was 110 % of control; the T/C under setting [3] was 100 % of control; the T/C under setting [17] is 110 % of control; the T/C (dose: 200.0 mg/kg/injection, schedule: Q04DX003 (ip), vehicle: Klucel (hydroxypropylcellulose) (HPC)) is 112 % of control.

These data come from PubChem BioAssay AID328 (DTP/NCI, 2004).
